From the NIST ThermoML archive (doi:10.1021/je060203o)
Numbers after ± are expanded uncertainties.

Settings: Liquid; for speed of sound: Pulse-echo method; for mass density: Vibrating tube method

CCCn1cc[n+](C)c1.O=S(=O)([N-]S(=O)(=O)C(F)(F)F)C(F)(F)F
Settings | mass density [kg/m3] | speed of sound [m/s]
318.15 K, 10000 kPa | – | 1225.2 ± 3.1
318.15 K, 10020 kPa | 1464.41 ± 2.7 | –
318.15 K, 13500 kPa | – | 1236.8 ± 3.1
318.15 K, 14980 kPa | 1467.91 ± 2.9 | –
318.15 K, 17000 kPa | – | 1248.2 ± 3.1
318.15 K, 19750 kPa | 1471.3 ± 3 | –
318.15 K, 20000 kPa | – | 1257.7 ± 3.1
318.15 K, 25860 kPa | 1475.51 ± 3.2 | –
318.15 K, 30000 kPa | – | 1288.7 ± 3.2
318.15 K, 31480 kPa | 1479.58 ± 3.3 | –
318.15 K, 37770 kPa | 1483.63 ± 3.5 | –
318.15 K, 40000 kPa | – | 1317.8 ± 3.2
318.15 K, 44170 kPa | 1487.95 ± 3.7 | –
318.15 K, 50000 kPa | – | 1345.7 ± 3.2
318.15 K, 50750 kPa | 1492.22 ± 3.9 | –
318.15 K, 59590 kPa | 1498.46 ± 4.1 | –
318.15 K, 60000 kPa | – | 1372.2 ± 3.2
318.15 K, 70000 kPa | – | 1397.8 ± 3.2
318.15 K, 80000 kPa | – | 1422.3 ± 3.2
318.15 K, 90000 kPa | – | 1446.3 ± 3.2
318.15 K, 100000 kPa | – | 1468.9 ± 3.2
318.15 K, 112500 kPa | – | 1496.5 ± 3.2
318.15 K, 125000 kPa | – | 1523.2 ± 3.2
318.15 K, 137510 kPa | – | 1548.4 ± 3.2
318.15 K, 150000 kPa | – | 1572.9 ± 3.2
318.15 K, 162500 kPa | – | 1596.6 ± 3.2
318.15 K, 175000 kPa | – | 1620 ± 3.2
318.15 K, 187500 kPa | – | 1642.7 ± 3.2
318.15 K, 200000 kPa | – | 1664.6 ± 3.2
323.15 K, 100 kPa | 1451.66 ± 2.5 | –
323.15 K, 1830 kPa | 1452.94 ± 2.5 | –
323.15 K, 10020 kPa | 1459.11 ± 2.7 | –
323.15 K, 14980 kPa | 1462.75 ± 2.9 | –
323.15 K, 19750 kPa | 1466.15 ± 3 | –
323.15 K, 25860 kPa | 1470.44 ± 3.1 | –
323.15 K, 31480 kPa | 1474.24 ± 3.3 | –
323.15 K, 37770 kPa | 1478.57 ± 3.5 | –
323.15 K, 44170 kPa | 1482.86 ± 3.6 | –
323.15 K, 50750 kPa | 1487.24 ± 3.8 | –
323.15 K, 59590 kPa | 1493.03 ± 4.1 | –
325.15 K, 100 kPa | 1449.44 ± 2.5 | –
325.15 K, 1830 kPa | 1450.74 ± 2.5 | –
325.15 K, 10020 kPa | 1456.98 ± 2.7 | –
325.15 K, 14980 kPa | 1460.64 ± 2.8 | –
325.15 K, 19750 kPa | 1464.08 ± 3 | –
325.15 K, 25860 kPa | 1468.44 ± 3.1 | –
325.15 K, 31480 kPa | 1472.46 ± 3.3 | –
325.15 K, 37770 kPa | 1476.81 ± 3.5 | –
325.15 K, 44170 kPa | 1481.18 ± 3.6 | –
325.15 K, 50750 kPa | 1485.62 ± 3.8 | –
325.15 K, 59590 kPa | 1491.56 ± 4.1 | –
327.15 K, 100 kPa | 1447.19 ± 2.5 | –
327.15 K, 1830 kPa | 1448.52 ± 2.5 | –
327.15 K, 10020 kPa | 1454.88 ± 2.7 | –
327.15 K, 14980 kPa | 1458.57 ± 2.8 | –
327.15 K, 19750 kPa | 1461.98 ± 3 | –
327.15 K, 25860 kPa | 1466.38 ± 3.1 | –
327.15 K, 31480 kPa | 1470.37 ± 3.3 | –
327.15 K, 37770 kPa | 1474.75 ± 3.4 | –
327.15 K, 44170 kPa | 1479.18 ± 3.6 | –
327.15 K, 50750 kPa | 1483.65 ± 3.8 | –
327.15 K, 59590 kPa | 1489.6 ± 4.1 | –
328.15 K, 500 kPa | – | 1170.9 ± 3.1
328.15 K, 3500 kPa | – | 1181.8 ± 3.1
328.15 K, 7000 kPa | – | 1194.2 ± 3.1
328.15 K, 10000 kPa | – | 1204.7 ± 3.1
328.15 K, 13500 kPa | – | 1216.4 ± 3.1
328.15 K, 17000 kPa | – | 1228 ± 3.1
328.15 K, 20000 kPa | – | 1237.7 ± 3.1
328.15 K, 30000 kPa | – | 1269.2 ± 3.2
328.15 K, 40000 kPa | – | 1299.1 ± 3.2
328.15 K, 50000 kPa | – | 1327.3 ± 3.2
328.15 K, 60000 kPa | – | 1354.2 ± 3.2
328.15 K, 70000 kPa | – | 1380.1 ± 3.2
328.15 K, 80000 kPa | – | 1405.1 ± 3.2
328.15 K, 90000 kPa | – | 1429.1 ± 3.2
328.15 K, 100000 kPa | – | 1452.2 ± 3.2
328.15 K, 112500 kPa | – | 1480.1 ± 3.2
328.15 K, 125000 kPa | – | 1506.9 ± 3.2
328.15 K, 137510 kPa | – | 1532.8 ± 3.2
328.15 K, 150000 kPa | – | 1557 ± 3.2
328.15 K, 162500 kPa | – | 1581.2 ± 3.2
328.15 K, 175000 kPa | – | 1604.6 ± 3.2
328.15 K, 187500 kPa | – | 1627.3 ± 3.2
328.15 K, 200000 kPa | – | 1649.6 ± 3.2
329.15 K, 100 kPa | 1444.85 ± 2.4 | –
329.15 K, 1830 kPa | 1446.17 ± 2.5 | –
329.15 K, 10020 kPa | 1452.55 ± 2.7 | –
329.15 K, 14980 kPa | 1456.27 ± 2.8 | –
329.15 K, 19750 kPa | 1459.81 ± 2.9 | –
329.15 K, 25860 kPa | 1464.24 ± 3.1 | –
329.15 K, 31480 kPa | 1468.26 ± 3.3 | –
329.15 K, 37770 kPa | 1472.67 ± 3.4 | –
329.15 K, 44170 kPa | 1477.09 ± 3.6 | –
329.15 K, 50750 kPa | 1481.63 ± 3.8 | –
329.15 K, 59590 kPa | 1487.58 ± 4 | –
331.15 K, 100 kPa | 1442.53 ± 2.4 | –
331.15 K, 1830 kPa | 1443.83 ± 2.5 | –
331.15 K, 10020 kPa | 1450.37 ± 2.7 | –
331.15 K, 14980 kPa | 1454.12 ± 2.8 | –
331.15 K, 19750 kPa | 1457.75 ± 2.9 | –
331.15 K, 25860 kPa | 1462.22 ± 3.1 | –
331.15 K, 31480 kPa | 1466.27 ± 3.2 | –
331.15 K, 37770 kPa | 1470.7 ± 3.4 | –
331.15 K, 44170 kPa | 1475.13 ± 3.6 | –
331.15 K, 50750 kPa | 1479.63 ± 3.8 | –
331.15 K, 59590 kPa | 1485.58 ± 4 | –
333.15 K, 100 kPa | 1440.12 ± 2.4 | –
333.15 K, 1830 kPa | 1441.48 ± 2.5 | –
333.15 K, 10020 kPa | 1448.04 ± 2.7 | –
333.15 K, 14980 kPa | 1451.88 ± 2.8 | –
333.15 K, 19750 kPa | 1455.51 ± 2.9 | –
333.15 K, 25860 kPa | 1460.01 ± 3.1 | –
333.15 K, 31480 kPa | 1464.11 ± 3.2 | –
333.15 K, 37770 kPa | 1468.58 ± 3.4 | –
333.15 K, 44170 kPa | 1473.05 ± 3.6 | –
333.15 K, 50750 kPa | 1477.56 ± 3.8 | –
333.15 K, 59590 kPa | 1483.54 ± 4 | –
338.15 K, 1420 kPa | – | 1153.5 ± 3.1
338.15 K, 3500 kPa | – | 1161.2 ± 3.1
338.15 K, 7000 kPa | – | 1173.8 ± 3.1
338.15 K, 10000 kPa | – | 1184.4 ± 3.1
338.15 K, 13500 kPa | – | 1196.6 ± 3.1
338.15 K, 17000 kPa | – | 1208.3 ± 3.1
338.15 K, 20000 kPa | – | 1218.2 ± 3.1
338.15 K, 30000 kPa | – | 1250.4 ± 3.2
338.15 K, 40000 kPa | – | 1280.7 ± 3.2
338.15 K, 50000 kPa | – | 1309.2 ± 3.2
338.15 K, 60000 kPa | – | 1336.7 ± 3.2
338.15 K, 70000 kPa | – | 1362.9 ± 3.2
338.15 K, 80000 kPa | – | 1388.1 ± 3.2
338.15 K, 90000 kPa | – | 1412.3 ± 3.2
338.15 K, 100000 kPa | – | 1435.8 ± 3.2
338.15 K, 112500 kPa | – | 1463.9 ± 3.2
338.15 K, 125000 kPa | – | 1491.1 ± 3.2
338.15 K, 137510 kPa | – | 1517 ± 3.2
338.15 K, 150000 kPa | – | 1541.4 ± 3.2
338.15 K, 162500 kPa | – | 1566 ± 3.2
338.15 K, 175000 kPa | – | 1589.5 ± 3.2
